In experiment [1] the test system is H460 cells. Briefly: MTT assay after 120 hours, IC50. It counts as cell-based. To be noted: Homo sapiens, NCI-H460, 120 h, read-out: EGFR TKI IC50 (Nm). The source says:
(§1) Cell lines and cell culture. Human lung cancer cell lines were maintained in RPMI 1640 plus 5% bovine calf serum (BCS). H3255 cells were provided by Dr. Pasi Janne (Dana-Farber, Boston, Mass.) and grown in ACL-4 medium (12). HCC827 cells were provided by Dr. Jon Kurie (M. D. Anderson, Houston, Tex.). PC9 cells were provided by Dr. Matthew Lazzara (Massachusetts Institute of Technology, Boston, Mass.). […]. Gefitinib was provided by AstraZeneca (Wilmington, Del.) and dasatinib by Bristol-Myers Squibb Oncology (Princeton, N.J.). For cell transfection experiments, 2×10^6 HEK293 cells in a 6-cm dish maintained in DMEM/10% BCS were transfected with 1 Ag plasmid DNA for 3 hours using LipofectAMINE 2000 (Invitrogen, Carlsbad, Calif.) and then allowed to go 24 hours before being treated with inhibitors.
(§2) Cytotoxicity and apoptosis assays. Cytotoxicity assays [3-(4,5-dimethylthiazol-2-yl)-2,5-diphenyltetrazolium bromide] were done according to the manufacturer's recommendations (Roche, Indianapolis, Ind.). […] Data presented represent three separate experiments with eight data points per concentration per experiment. Apoptosis [PharMingen (San Diego, Calif.) Apo-BrdU kit] and cell cycle changes (propidium iodide staining and flow cytometry) were assayed as before (13). Data are expressed as mean±SD.
In general terms: Formazan colour is commonly taken as a measure of viable cells.

The subject of experiment [2] is H23 cells. Put plainly: MTT assay after 120 hours, IC50. It counts as cell-based. To be noted: Homo sapiens, NCI-H23, 120 h, read-out: EGFR TKI IC50 (Nm).
Text: as §1, §2

The subject of experiment [3] is H226 cells. Briefly: MTT assay after 120 hours, IC50. It counts as cell-based. To be noted: Homo sapiens, NCI-H226, 120 h, read-out: EGFR TKI IC50 (Nm).
Text: as §1, §2

In experiment [4] the test system is H2122 cells. Put plainly: MTT assay after 120 hours, IC50. It counts as cell-based. To be noted: Homo sapiens, NCI-H2122, 120 h, read-out: EGFR TKI IC50 (Nm).
Text: as §1, §2

Experiment [5] relates to H441 cells. Put plainly: MTT assay after 120 hours, IC50. It counts as cell-based. To be noted: Homo sapiens, NCI-H441, 120 h, read-out: EGFR TKI IC50 (Nm).
Text: as §1, §2

For experiment [6], the system named is A549 cells. Put plainly: MTT assay after 120 hours, IC50. It counts as cell-based. The conditions noted are these: Homo sapiens, A549, 120 h, read-out: EGFR TKI IC50 (Nm).
Text: Cell lines and cell culture. […] Gefitinib was provided by AstraZeneca (Wilmington, Del.) and dasatinib by Bristol-Myers Squibb Oncology (Princeton, N.J.).
Cytotoxicity and apoptosis assays. Cytotoxicity assays [3-(4,5-dimethylthiazol-2-yl)-2,5-diphenyltetrazolium bromide] were done according to the manufacturer's recommendations (Roche, Indianapolis, Ind.). Cells (5×10^3) in medium with 5% BCS were placed into single wells in a 96-well plate and exposed to indicated agents, and viability was assessed after 72 hours. Data presented represent three separate experiments with eight data points per concentration per experiment. […] Data are expressed as mean±SD.
Experiment [7] concerns H441 cells. Briefly: Combination effect in cell viability assays, median dose effect method. The conditions noted are these: dose range used. It counts as cell-based, Human. The method, then: Combination effects were evaluated by median dose effect method.
Experiment [8] relates to lung cancer cells with EGFR mutation that are resistant to EGFR TKI. Briefly: Apoptosis and cell cycle in cells with acquired resistance to erlotinib. The conditions noted are these: EGFR mutant cells resistant to EGFR TKI. It counts as cell-based, Human.
Experiment [9] deals with H1648 cells. Briefly: MTT assay after 120 hours, IC50. It counts as cell-based, Human.
Text: as §1, §2

In experiment [10] the test system is H358 cells. Put plainly: MTT assay after 120 hours, IC50. It counts as cell-based, Human.
Text: as §1, §2

For experiment [11], the system named is H322 cells. Briefly: MTT assay after 120 hours, IC50. It counts as cell-based, Human.
Text: as §1, §2

The subject of experiment [12] is H292 cells. Put plainly: MTT assay after 120 hours, IC50. It counts as cell-based, Human.
Text: as §1, §2

Experiment [13] deals with H1299 cells. Briefly: MTT assay after 120 hours, IC50. It counts as cell-based, Human. To be noted: Homo sapiens, NCI-H1299, 120 h, read-out: EGFR TKI IC50 (Nm).
Text: as §1, §2

Experiment [14] deals with H157 cells. Briefly: MTT assay after 120 hours, IC50. To be noted: Homo sapiens, NCI-H157, 120 h, read-out: EGFR TKI IC50 (Nm). It counts as cell-based, Human.
Text: as §1, §2

The source of these data is patent US20100004257A1 (University of South Floria, priority 2007, published 2010).

As to `C#Cc1cccc(Nc2ncnc3cc(OCCOC)c(OCCOC)cc23)c1` [erlotinib], the 50% inhibitory concentration (IC50) is > 2000 nM in experiment [1]; > 2000 nM in experiment [2]; > 2000 nM in experiment [3]; 748 nM in experiment [4]; > 2000 nM in [5]; > 2000 nM in [6]. Moreover, the IC50 in [9] (Homo sapiens, NCI-H1648, 120 h, read-out: EGFR TKI IC50 (Nm)) was 75.8 nM; in experiment [10] (Homo sapiens, NCI-H358, 120 h, read-out: EGFR TKI IC50 (Nm)), 199 nM; in experiment [11] (Homo sapiens, NCI-H322, 120 h, read-out: EGFR TKI IC50 (Nm)), 135 nM; in experiment [12] (Homo sapiens, NCI-H292, 120 h, read-out: EGFR TKI IC50 (Nm)), 63.4 nM; in experiment [13], > 2000 nM; in experiment [14] it was > 2000 nM. Further, the “effect on cell viability” value in experiment [7] was “no effect”. Also, the cell cycle result in experiment [8] is reported as “no observable effect on cell cycle”. Besides, the “EGFR TKI Sensitivity” value is given as “S (EGFR TKI Sensitivity Definition: Reported IC50 < or = 1 μM)” in [9] (erlotinib, H1648, Adeno, EGFR WT, MTT 120 hours); “S (EGFR TKI Sensitivity Definition: Reported IC50 < or = 1 μM)” in experiment [10] (erlotinib, H358, BAC, EGFR WT, MTT 120 hours); “S (EGFR TKI Sensitivity Definition: Reported IC50 < or = 1 μM)” in experiment [11] (erlotinib, H322, BAC, EGFR WT, MTT 120 hours); “S (EGFR TKI Sensitivity Definition: Reported IC50 < or = 1 μM)” in [12] (erlotinib, H292, Squamous, EGFR WT, MTT 120 hours).

Usually IC50 stands for the concentration that gives 50% inhibition.
